{
  "source": "paper doi:10.1101/2025.11.23.690065v1",
  "about": "(biorxiv, 2025)",
  "key": {"LAG-3 [1]": {"biological_target": "T1, LAG-3 (Homo sapiens, UniProt P18627)", "T1 sequence (P18627 23-525)": "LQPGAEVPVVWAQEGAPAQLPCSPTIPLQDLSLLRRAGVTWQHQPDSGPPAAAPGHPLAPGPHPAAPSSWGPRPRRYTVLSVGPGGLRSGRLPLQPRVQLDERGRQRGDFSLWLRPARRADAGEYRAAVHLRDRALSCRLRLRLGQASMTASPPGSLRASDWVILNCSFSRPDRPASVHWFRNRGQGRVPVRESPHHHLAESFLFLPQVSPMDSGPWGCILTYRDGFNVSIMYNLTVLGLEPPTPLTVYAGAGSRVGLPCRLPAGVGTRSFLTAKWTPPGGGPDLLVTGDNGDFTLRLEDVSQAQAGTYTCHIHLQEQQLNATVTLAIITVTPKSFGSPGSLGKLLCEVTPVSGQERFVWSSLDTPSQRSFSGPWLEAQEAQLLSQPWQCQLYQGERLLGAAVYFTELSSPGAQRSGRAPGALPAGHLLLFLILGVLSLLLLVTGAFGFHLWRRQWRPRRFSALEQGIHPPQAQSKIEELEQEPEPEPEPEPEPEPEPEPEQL", "assay": "single-dose TRIC screen", "type": "binding", "conditions": "2% DMSO; bound from single-dose screen at 300 µM"}, "His-TREM2 (TREM2) [2]": {"biological_target": "T2, His-TREM2 (TREM2) (Homo sapiens, UniProt Q9NZC2)", "T2 sequence (Q9NZC2 19-174 limits assumed)": "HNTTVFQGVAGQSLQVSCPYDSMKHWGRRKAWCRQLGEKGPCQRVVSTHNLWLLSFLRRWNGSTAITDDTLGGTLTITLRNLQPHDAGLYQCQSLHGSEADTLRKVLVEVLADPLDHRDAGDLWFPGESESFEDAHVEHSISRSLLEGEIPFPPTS", "assay": "MST", "type": "binding"}, "TREM1 [3]": {"biological_target": "T3, TREM1 (Homo sapiens, UniProt Q9NP99)", "T3 sequence (Q9NP99 21-205 limits assumed)": "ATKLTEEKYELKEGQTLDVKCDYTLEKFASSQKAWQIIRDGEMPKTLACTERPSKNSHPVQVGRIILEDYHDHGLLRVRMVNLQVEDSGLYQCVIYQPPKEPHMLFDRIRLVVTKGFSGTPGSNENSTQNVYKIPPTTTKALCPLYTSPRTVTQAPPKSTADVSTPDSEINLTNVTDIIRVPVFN", "assay": "single-dose TRIC/MST screen", "type": "binding", "conditions": "PBS pH 7.4, 0.05% Tween-20; bound from single-dose screen at 300 µM"}, "LAG-3 [4]": {"biological_target": "T1, LAG-3", "assay": "MST", "type": "binding"}, "TREM1 [5]": {"biological_target": "T3, TREM1", "assay": "MST", "type": "binding"}, "His-TREM2 (TREM2) [6]": {"biological_target": "T2, His-TREM2 (TREM2)", "assay": "biochemical"}, "His-TREM2 (TREM2) [7]": {"biological_target": "T2, His-TREM2 (TREM2)", "assay": "nanoDSF thermal shift, dose-response", "type": "binding"}, "His-TREM2 (TREM2) [8]": {"biological_target": "T2, His-TREM2 (TREM2)", "assay": "nanoDSF thermal shift", "type": "binding", "conditions": "read-out: ΔTm at 100 μM"}},
  "data": [
    {"smiles": "NC(=O)C1CCN(C(=O)c2cccn(Cc3ccccc3)c2=O)CC1", "note": "[2M06-1]", "values": [
      {"measurement": "KD", "setting": "LAG-3 [1]", "result": "> 300", "unit": "µM"},
      {"measurement": "Kd", "setting": "His-TREM2 (TREM2) [2]", "result": "124 ± 36", "unit": "µM"},
      {"measurement": "KD", "setting": "TREM1 [3]", "result": "> 300", "unit": "µM"}
    ]},
    {"smiles": "Cn1cc(C(=O)N2C(C(=O)O)CC3CCCCC32)ccc1=O", "note": "(stereo not drawn) [2M06-6]", "values": [
      {"measurement": "KD", "setting": "LAG-3 [1]", "result": "> 300", "unit": "µM"},
      {"measurement": "Kd", "setting": "His-TREM2 (TREM2) [2]", "result": "> 300", "unit": "µM"},
      {"measurement": "KD", "setting": "TREM1 [3]", "result": "> 300", "unit": "µM"}
    ]},
    {"smiles": "Cc1cccc(Cn2cccc(C(=O)NC3CCCCCC3)c2=O)c1", "note": "[2M06-8]", "values": [
      {"measurement": "KD", "setting": "LAG-3 [1]", "result": "> 300", "unit": "µM"},
      {"measurement": "Kd", "setting": "His-TREM2 (TREM2) [2]", "result": "> 300", "unit": "µM"},
      {"measurement": "KD", "setting": "TREM1 [3]", "result": "> 300", "unit": "µM"}
    ]},
    {"smiles": "Cc1cccc(Cn2cccc(C(=O)N3C(C(=O)O)CC4CCCCC43)c2=O)c1", "note": "(stereo not drawn) [2M06]", "values": [
      {"measurement": "KD", "setting": "LAG-3 [1]", "result": "> 300", "unit": "µM"},
      {"measurement": "Kd", "setting": "His-TREM2 (TREM2) [2]", "result": "26.1 ± 5.1", "unit": "µM"},
      {"measurement": "KD", "setting": "TREM1 [3]", "result": "> 300", "unit": "µM"}
    ]},
    {"smiles": "O=C1CCCN1c1ccc2c(c1)CCN2", "note": "[6B10-1]", "values": [
      {"measurement": "Kd", "setting": "LAG-3 [4]", "result": "59.4 ± 14.1", "unit": "µM"},
      {"measurement": "Kd", "setting": "TREM1 [5]", "result": "121 ± 3.4", "unit": "µM"},
      {"measurement": "Kd", "setting": "His-TREM2 (TREM2) [2]", "result": "19.5 ± 6.8", "unit": "µM"}
    ]},
    {"smiles": "CC(C)(C)CC(=O)Nc1ccc2c(c1)CCN2", "note": "[6B10-2]", "values": [
      {"measurement": "KD", "setting": "LAG-3 [1]", "result": "> 300", "unit": "µM"},
      {"measurement": "Kd", "setting": "His-TREM2 (TREM2) [2]", "result": "> 300", "unit": "µM"},
      {"measurement": "KD", "setting": "TREM1 [3]", "result": "> 300", "unit": "µM"}
    ]},
    {"smiles": "COC1(CC(=O)Nc2ccc3c(c2)CCN3)CCC1", "note": "[6B10-3]", "values": [
      {"measurement": "KD", "setting": "LAG-3 [1]", "result": "> 300", "unit": "µM"},
      {"measurement": "Kd", "setting": "His-TREM2 (TREM2) [2]", "result": "> 300", "unit": "µM"},
      {"measurement": "KD", "setting": "TREM1 [3]", "result": "> 300", "unit": "µM"}
    ]},
    {"smiles": "CC1(C(=O)Nc2ccc3c(c2)CCN3C(=O)c2ccoc2)CCCC1", "note": "[6B10-8]", "values": [
      {"measurement": "KD", "setting": "LAG-3 [1]", "result": "> 300", "unit": "µM"},
      {"measurement": "Kd", "setting": "His-TREM2 (TREM2) [2]", "result": "127 ± 16", "unit": "µM"},
      {"measurement": "Kd", "setting": "His-TREM2 (TREM2) [6]", "result": "136 ± 14", "unit": "µM"},
      {"measurement": "KD", "setting": "TREM1 [3]", "result": "> 300", "unit": "µM"}
    ]},
    {"smiles": "O=C(Nc1ccc2c(c1)CCN2C(=O)c1ccoc1)C1CC2C=CC1C2", "note": "(stereo not drawn) [6B10-9]", "values": [
      {"measurement": "KD", "setting": "LAG-3 [1]", "result": "> 300", "unit": "µM"},
      {"measurement": "Kd", "setting": "His-TREM2 (TREM2) [2]", "result": "68.3 ± 2.8", "unit": "µM"},
      {"measurement": "EC50", "setting": "His-TREM2 (TREM2) [7]", "result": 62, "unit": "µM"},
      {"measurement": "ΔTm at 100 µM", "setting": "His-TREM2 (TREM2) [8]", "result": "> 2", "unit": "°C"},
      {"measurement": "KD", "setting": "TREM1 [3]", "result": "> 300", "unit": "µM"}
    ]},
    {"smiles": "CC(=O)N1CCc2cc(NC(=O)C3(C#N)CCCC3)ccc21", "note": "[6B10-13]", "values": [
      {"measurement": "KD", "setting": "LAG-3 [1]", "result": "> 300", "unit": "µM"},
      {"measurement": "Kd", "setting": "His-TREM2 (TREM2) [2]", "result": "> 300", "unit": "µM"},
      {"measurement": "KD", "setting": "TREM1 [3]", "result": "> 300", "unit": "µM"}
    ]},
    {"smiles": "O=C(Nc1ccc2c(c1)CCN2)C1CCCC1", "note": "[6B10]", "values": [
      {"measurement": "Kd", "setting": "TREM1 [5]", "result": "66.9 ± 28.6", "unit": "µM"},
      {"measurement": "KD", "setting": "LAG-3 [1]", "result": "> 300", "unit": "µM"},
      {"measurement": "Kd", "setting": "His-TREM2 (TREM2) [2]", "result": "37.6 ± 15.8", "unit": "µM"}
    ]},
    {"smiles": "O=C(O)C1CC2CCCCC2N1Cc1cc(=O)n2ccccc2n1", "note": "(stereo not drawn) [7G19-5]", "values": [
      {"measurement": "Kd", "setting": "TREM1 [5]", "result": "56.6 ± 8.6", "unit": "µM"},
      {"measurement": "KD", "setting": "LAG-3 [1]", "result": "> 300", "unit": "µM"},
      {"measurement": "Kd", "setting": "His-TREM2 (TREM2) [2]", "result": "4.5 ± 0.9", "unit": "µM"}
    ]},
    {"smiles": "Cc1cccn2c(=O)cc(CN3C(C(=O)O)CC4CCCCC43)nc12", "note": "(stereo not drawn) [7G19]", "values": [
      {"measurement": "Kd", "setting": "LAG-3 [4]", "result": "61.9 ± 23.2", "unit": "µM"},
      {"measurement": "Kd", "setting": "TREM1 [5]", "result": "46.5 ± 38.1", "unit": "µM"},
      {"measurement": "Kd", "setting": "His-TREM2 (TREM2) [2]", "result": "3.8 ± 0.3", "unit": "µM"}
    ]}
  ]
}
